Experimental data published in US20250290117A1, “MOLECULAR PHENOTYPIC ANTIMICROBIAL SUSCEPTIBILITY TESTING” (priority 2024, published 2025).

Tests used:
[1] = tested on: pathogens of clinical samples; assay: Molecular phenotypic antimicrobial susceptibility test of clinical samples, extraction DNA purification step prior to PCR (Table 6); format: cell-based
How it was run: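 Specimens are first pre-incubated in medium, then diluted to 0.5 McFarland guided by optical density. They are exposed 12-16 h to antimicrobials at sensitivity breakpoints. Finally, either bead-based purification or lysis for direct PCR precedes semi-quantitative PCR.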

Escherichia coli = assay: Traditional culture-based antimicrobial susceptibility test; format: cell-based
How it was run: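 Susceptibility of each E. coli isolate to each antimicrobial was determined the standard way: pathogens were grown, isolated and then exposed to the agents.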

[2] = E. coli, clinical sample of r10-r24
[3] = E. coli, clinical sample of r158-r172
[4] = K. aerogenes, clinical sample of r136-r150
[5] = K. pneumoniae, clinical sample of r121-r135
[6] = M. morganii, clinical sample of r55-r69
[7] = M. morganii, clinical sample of r70-r84
[8] = P. mirabilis, clinical sample of r25-r39
[9] = P. mirabilis, clinical sample of r40-r54

C[C@@H]1O[C@@H]1P(=O)(O)O [Fosfomycin] was tested, and the “Molecular Antibiotic Susceptibility Result” value [1, 2] was “Sensitive (Antimicrobial wells with pathogen load detected below the control wells (typically >2 cycle thresholds later) may be reported as Sensitive)”, the Ct ([1]; E. coli, clinical sample of r10-r24, Ct Control Avg 18.112) was 28.111 and the “Molecular Antibiotic Susceptibility Result” value [1, 3] was “Sensitive (Antimicrobial wells with pathogen load detected below the control wells (typically >2 cycle thresholds later) may be reported as Sensitive)”. For the same molecule, the Ct ([1]; E. coli, clinical sample of r158-r172, Ct Control Avg 20.146) was 30.261, the “Molecular Antibiotic Susceptibility Result” value ([1]; E. faecalis, clinical sample of r93-r99) was “Sensitive (Antimicrobial wells with pathogen load detected below the control wells (typically >2 cycle thresholds later) may be reported as Sensitive)” and the Ct ([1]; E. faecalis, clinical sample of r93-r99, Ct Control Avg 22.987) was 35.358. For the same molecule, the “Molecular Antibiotic Susceptibility Result” value ([1]; E. faecalis, clinical sample of r100-r106) was “sensitive”, the Ct ([1]; E. faecalis, clinical sample of r100-r106, Ct Control Avg 23.073) was 36.898 and the “Molecular Antibiotic Susceptibility Result” value ([1]; E. faecalis, clinical sample of r107-r113) was “Resistant”. The Ct ([1]; E. faecalis, clinical sample of r107-r113, Ct Control Avg 22.144) was 20.142, the “Molecular Antibiotic Susceptibility Result” value ([1]; E. faecalis, clinical sample of r114-r120) was “Sensitive (Antimicrobial wells with pathogen load detected below the control wells (typically >2 cycle thresholds later) may be reported as Sensitive)” and the Ct ([1]; E. faecalis, clinical sample of r114-r120, Ct Control Avg 20.822) was 30.598. For the same molecule, the “Molecular Antibiotic Susceptibility Result” value ([1]; E. faecalis, clinical sample of r151-r157) was “Sensitive (Antimicrobial wells with pathogen load detected below the control wells (typically >2 cycle thresholds later) may be reported as Sensitive)”, the Ct ([1]; E. faecalis, clinical sample of r151-r157, Ct Control Avg 20.56) was 37.968 and the “Molecular Antibiotic Susceptibility Result” value [1, 4] was “Sensitive (Antimicrobial wells with pathogen load detected below the control wells (typically >2 cycle thresholds later) may be reported as Sensitive)”. The Ct ([1]; K. aerogenes, clinical sample of r136-r150, Ct Control Avg 19.994) was 25.008, the “Molecular Antibiotic Susceptibility Result” value [1, 5] was “Resistant” and the Ct ([1]; K. pneumoniae, clinical sample of r121-r135, Ct Control Avg 24.272) was 18.711. The “Molecular Antibiotic Susceptibility Result” value [1, 6] was “Sensitive (Antimicrobial wells with pathogen load detected below the control wells (typically >2 cycle thresholds later) may be reported as Sensitive)”, the Ct ([1]; M. morganii, clinical sample of r55-r69, Ct Control Avg 28.86) was 31.935 and the “Molecular Antibiotic Susceptibility Result” value [1, 7] was “Sensitive (Antimicrobial wells with pathogen load detected below the control wells (typically >2 cycle thresholds later) may be reported as Sensitive)”. For the same molecule, the Ct ([1]; M. morganii, clinical sample of r70-r84, Ct Control Avg 27.053) was 37.955, the “Molecular Antibiotic Susceptibility Result” value [1, 8] was “Sensitive (Antimicrobial wells with pathogen load detected below the control wells (typically >2 cycle thresholds later) may be reported as Sensitive)” and the Ct ([1]; P. mirabilis, clinical sample of r25-r39, Ct Control Avg 26.064) was 27.051. For the same molecule, the “Molecular Antibiotic Susceptibility Result” value [1, 9] was “Sensitive (Antimicrobial wells with pathogen load detected below the control wells (typically >2 cycle thresholds later) may be reported as Sensitive)”, the Ct ([1]; P. mirabilis, clinical sample of r40-r54, Ct Control Avg 26.987) was 31.981 and the “Traditional Culture Results” value (Escherichia coli; E. coli #1 - WDCM 00090 - 6.2×E3) was “Sensitive”. For the same molecule, the “Traditional Culture Results” value (Escherichia coli; E. coli #2 - WDCM 00090 - 6.2×E3) was “Sensitive”.
For CO/N=C(\C(=O)N[C@@H]1C(=O)N2C(C(=O)[O-])=C(C[N+]3(C)CCCC3)CS[C@H]12)c1csc(N)n1 [Cefepime], the “Molecular Antibiotic Susceptibility Result” value [1, 2] was “Sensitive (Antimicrobial wells with pathogen load detected below the control wells (typically >2 cycle thresholds later) may be reported as Sensitive)”, the “Molecular Antibiotic Susceptibility Result” value [1, 3] was “Sensitive (Antimicrobial wells with pathogen load detected below the control wells (typically >2 cycle thresholds later) may be reported as Sensitive)” and the “Molecular Antibiotic Susceptibility Result” value [1, 4] was “Sensitive (Antimicrobial wells with pathogen load detected below the control wells (typically >2 cycle thresholds later) may be reported as Sensitive)”. For the same molecule, the “Molecular Antibiotic Susceptibility Result” value [1, 5] was “Sensitive (Antimicrobial wells with pathogen load detected below the control wells (typically >2 cycle thresholds later) may be reported as Sensitive)”, the “Molecular Antibiotic Susceptibility Result” value [1, 6] was “Sensitive (Antimicrobial wells with pathogen load detected below the control wells (typically >2 cycle thresholds later) may be reported as Sensitive)” and the “Molecular Antibiotic Susceptibility Result” value [1, 7] was “Sensitive (Antimicrobial wells with pathogen load detected below the control wells (typically >2 cycle thresholds later) may be reported as Sensitive)”. For the same molecule, the “Molecular Antibiotic Susceptibility Result” value [1, 8] was “Sensitive (Antimicrobial wells with pathogen load detected below the control wells (typically >2 cycle thresholds later) may be reported as Sensitive)”, the “Molecular Antibiotic Susceptibility Result” value [1, 9] was “Sensitive (Antimicrobial wells with pathogen load detected below the control wells (typically >2 cycle thresholds later) may be reported as Sensitive)” and the “Traditional Culture Result” value (Escherichia coli; E. coli isolate 4 (Table 3)) was “Resistant”. For the same molecule, the “Traditional Culture Result” value (Escherichia coli; E. coli isolate 5 (Table 3)) was “Sensitive” and the “Traditional Culture Result” value (Escherichia coli; E. coli isolate JJ1887) was “Resistant”.
